In PubChem BioAssay (NCI):
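Where inhibition never reached the appropriate level, the endpoint shown equals the highest concentration tested. Otherwise, values were interpolated linearly from a five-concentration, 48-hour dose response in 96-well plates. GI50 is the concentration that inhibits growth by half. At the TGI there is no net growth.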

How the values were obtained:
Experiment in all cases: growth of human tumour cells (NCI), 48 h
SK-MEL-28 melanoma = tested on: SK-MEL-28 melanoma
SK-MEL-2 melanoma = tested on: SK-MEL-2 melanoma
OVCAR-5 ovarian = tested on: OVCAR-5 ovarian
K-562 leukemia = tested on: K-562 leukemia
HCC-2998 colon = tested on: HCC-2998 colon
MCF7 breast = tested on: MCF7 breast
UO-31 renal = tested on: UO-31 renal
RXF 393 renal = tested on: RXF 393 renal
HL-60(TB) leukemia = tested on: HL-60(TB) leukemia
NCI-H522 lung = tested on: NCI-H522 lung

| Compound | TGI (SK-MEL-28 melanoma) | TGI (SK-MEL-2 melanoma) | TGI (OVCAR-5 ovarian) | TGI (K-562 leukemia) | TGI (HCC-2998 colon) | TGI (MCF7 breast) | TGI (UO-31 renal) | TGI (RXF 393 renal) | TGI (HL-60(TB) leukemia) | TGI (NCI-H522 lung) | GI50 (SK-MEL-28 melanoma) | GI50 (SK-MEL-2 melanoma) | GI50 (OVCAR-5 ovarian) | GI50 (K-562 leukemia) | GI50 (HCC-2998 colon) | GI50 (MCF7 breast) | GI50 (UO-31 renal) | GI50 (RXF 393 renal) | GI50 (HL-60(TB) leukemia) | GI50 (NCI-H522 lung) |
| --- | --- | --- | --- | --- | --- | --- | --- | --- | --- | --- | --- | --- | --- | --- | --- | --- | --- | --- | --- | --- |
| COc1ccc2c(c1OC)OCC(CN(C)C)C2=O (stereo not given) | 32.3 µM | 30.5 µM | 35.7 µM | 10.5 µM | 33.7 µM | 27.5 µM | 32.5 µM | 30.5 µM | 7.14 µM | 0.472 µM | – | – | – | – | – | – | – | – | – | – |
| Cc1cc(Oc2ccc3nc(COc4ccc(CC5SC(=O)NC5=O)cc4)n(C)c3c2)cc(C)c1N (stereo not given) | > 100 µM | > 69.7 µM | > 100 µM | > 100 µM | > 100 µM | 98.9 µM | > 81.6 µM | > 100 µM | 88 µM | > 73.9 µM | 49.7 µM | > 49.4 µM | > 63.7 µM | 35.4 µM | 54.9 µM | 27.6 µM | 24.8 µM | 50.8 µM | 26.8 µM | 33.2 µM |
| COc1ccc(CNc2nc3cc(N)cc(N)c3nc2-c2ccccc2)cc1 | 32.3 µM | 29.1 µM | 46.2 µM | 97.1 µM | 51.7 µM | 26.5 µM | 28.7 µM | 18.4 µM | 51.3 µM | 22 µM | 17.3 µM | 14.7 µM | 20.8 µM | 25.4 µM | 21.8 µM | 13.2 µM | 11.4 µM | 5.32 µM | 13.6 µM | 10 µM |
| CCCCCCc1nc2nc(Cl)c(Cl)nc2[nH]1 | > 100 µM | > 100 µM | > 100 µM | > 100 µM | > 100 µM | > 100 µM | > 100 µM | > 100 µM | > 100 µM | 26.8 µM | > 100 µM | 5.58 µM | > 100 µM | 5.29 µM | > 100 µM | 4.08 µM | 4.88 µM | 7.55 µM | 6.84 µM | 2.73 µM |
